{"source": "ChEMBL document CHEMBL6177960", "about": "“Rational design, optimization, and biological evaluation of novel pyrrolo-pyridone derivatives as potent and orally active Cbl-b inhibitors” (Eur J Med Chem, 2025)", "key": {"[1]": {"target": "E3 ubiquitin-protein ligase CBL-B (Homo sapiens, UniProt Q13191)", "sequence (Q13191 whole entry)": "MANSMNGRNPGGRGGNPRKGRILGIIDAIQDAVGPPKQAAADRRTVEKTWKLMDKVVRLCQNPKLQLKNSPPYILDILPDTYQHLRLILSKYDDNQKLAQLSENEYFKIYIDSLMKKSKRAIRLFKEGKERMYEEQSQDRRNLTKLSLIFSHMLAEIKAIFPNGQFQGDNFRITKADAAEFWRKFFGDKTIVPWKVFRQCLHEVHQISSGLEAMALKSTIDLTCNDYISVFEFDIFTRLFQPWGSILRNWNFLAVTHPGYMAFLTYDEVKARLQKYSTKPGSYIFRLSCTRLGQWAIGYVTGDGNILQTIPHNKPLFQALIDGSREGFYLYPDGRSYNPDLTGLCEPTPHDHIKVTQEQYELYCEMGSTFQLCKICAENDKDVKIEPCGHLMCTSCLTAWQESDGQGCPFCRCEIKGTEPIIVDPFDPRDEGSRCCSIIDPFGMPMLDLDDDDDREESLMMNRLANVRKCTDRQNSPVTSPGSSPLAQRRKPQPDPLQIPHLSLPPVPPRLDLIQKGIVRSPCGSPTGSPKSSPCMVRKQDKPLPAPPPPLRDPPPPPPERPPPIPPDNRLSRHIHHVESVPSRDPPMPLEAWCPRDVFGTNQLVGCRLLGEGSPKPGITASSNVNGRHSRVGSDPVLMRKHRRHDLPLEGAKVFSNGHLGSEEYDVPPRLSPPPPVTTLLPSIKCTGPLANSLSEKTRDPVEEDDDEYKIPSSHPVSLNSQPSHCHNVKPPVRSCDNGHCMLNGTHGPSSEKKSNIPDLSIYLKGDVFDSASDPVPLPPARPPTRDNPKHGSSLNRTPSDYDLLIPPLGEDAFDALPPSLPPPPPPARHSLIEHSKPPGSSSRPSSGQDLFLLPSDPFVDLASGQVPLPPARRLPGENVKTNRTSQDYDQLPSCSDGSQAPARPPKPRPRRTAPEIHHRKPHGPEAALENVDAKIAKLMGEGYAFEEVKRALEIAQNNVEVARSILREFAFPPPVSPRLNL", "experiment": "Binding affinity to Cbl-b (unknown origin) assessed as inhibition constant incubated for 60 mins by TR-FRET assay"}, "in vitro [2]": {"experiment": "in vitro", "conditions": "dog, hepatocytes"}, "[3]": {"experiment": "Plasma protein binding in human at 5 uM incubated for 5 hrs by equilibrium dialysis based LC-MS analysis"}, "in vivo [4]": {"experiment": "in vivo", "conditions": "male, CD-1(ICR), mouse, po, 10 mg/kg"}, "[5]": {"experiment": "Plasma protein binding in Beagle dog at 5 uM incubated for 5 hrs by equilibrium dialysis based LC-MS analysis"}, "[6]": {"experiment": "Toxicity in female BALB/C mouse model implanted with mouse CT26 cells assessed as body weight gain at 10 mg/kg, po administered via gavage once daily and measured after 14 days", "assay_type": "organism-based", "conditions": "in vivo, 336 h, time 14 day"}, "in vivo [7]": {"experiment": "in vivo", "conditions": "male, CD-1(ICR), mouse, iv, 1 mg/kg", "description": "Clearance in male CD-1(ICR) mouse at 1 mg/kg, iv measured after 1440 mins by LC-MS/MS analysis"}, "in vivo [8]": {"experiment": "in vivo", "conditions": "male, CD-1(ICR), mouse, po, 10 mg/kg", "remark": "listed apart in the source"}, "[9]": {"conditions": "mouse, in vivo, po, 10 mg/kg, 24 h"}, "[10]": {"experiment": "Plasma protein binding in CD-1 mouse at 5 uM incubated for 5 hrs by equilibrium dialysis based LC-MS analysis"}, "[11]": {"experiment": "Protein binding in Sprague-Dawley rat plasma assessed as unbound fraction at 5 uM incubated for 5 hrs by equilibrium dialysis based LC-MS analysis"}, "[12]": {"experiment": "Inhibition of immunosuppressive activity in PGE2-induced human T cells assessed as increase in IL2 production preincubated with PGE2 for 15 mins followed by compound administration for 60 mins and measured after 48 hrs of anti-human CD28 antibody by ELISA", "conditions": "T-cell"}, "in vitro [13]": {"experiment": "in vitro", "conditions": "rat, hepatocytes"}, "in vitro [14]": {"experiment": "in vitro", "conditions": "human, hepatocytes"}, "[15]": {"experiment": "Protein binding in cynomolgus monkey plasma assessed as unbound fraction at 5 uM incubated for 5 hrs by equilibrium dialysis based LC-MS analysis"}, "[16]": {"experiment": "Plasma protein binding in Sprague-Dawley rat at 5 uM incubated for 5 hrs by equilibrium dialysis based LC-MS analysis"}, "CT26 [17]": {"system": "CT26", "experiment": "Antitumor activity against mouse CT26 cells implanted in female BALB/C mouse model assessed as tumor growth inhibition at 10 mg/kg, po administered via gavage once daily and measured after 14 days relative to control", "conditions": "336 h, read-out: TGI"}, "in vivo [18]": {"experiment": "in vivo", "conditions": "male, CD-1(ICR), mouse, iv, 1 mg/kg", "remark": "listed apart in the source", "description": "AUCinfinity in male CD-1(ICR) mouse at 1 mg/kg, iv measured after 1440 mins by LC-MS/MS analysis"}, "[19]": {"experiment": "Protein binding in human plasma assessed as unbound fraction at 5 uM incubated for 5 hrs by equilibrium dialysis based LC-MS analysis"}, "in vitro [20]": {"experiment": "in vitro", "conditions": "dog, hepatocytes", "remark": "listed apart in the source"}, "[21]": {"experiment": "Protein binding in Beagle dog plasma assessed as unbound fraction at 5 uM incubated for 5 hrs by equilibrium dialysis based LC-MS analysis"}, "in vivo [22]": {"experiment": "in vivo", "conditions": "male, CD-1(ICR), mouse, iv, 1 mg/kg", "remark": "listed apart in the source", "description": "C0 in male CD-1(ICR) mouse at 1 mg/kg, iv measured after 1440 mins by LC-MS/MS analysis"}, "in vivo [23]": {"experiment": "in vivo", "conditions": "male, CD-1(ICR), mouse, iv, 1 mg/kg", "remark": "listed apart in the source", "description": "AUClast in male CD-1(ICR) mouse at 1 mg/kg, iv measured after 1440 mins by LC-MS/MS analysis"}, "in vivo [24]": {"experiment": "in vivo", "conditions": "male, CD-1(ICR), mouse, iv, 1 mg/kg", "remark": "listed apart in the source", "description": "MRTinfinity in male CD-1(ICR) mouse at 1 mg/kg, iv measured after 1440 mins by LC-MS/MS analysis"}, "[25]": {"experiment": "Plasma protein binding in cynomolgus monkey at 5 uM incubated for 5 hrs by equilibrium dialysis based LC-MS analysis"}, "in vivo [26]": {"experiment": "in vivo", "conditions": "male, CD-1(ICR), mouse, po, 10 mg/kg", "remark": "listed apart in the source"}, "in vivo [27]": {"experiment": "in vivo", "conditions": "male, CD-1(ICR), mouse, po, 10 mg/kg", "remark": "listed apart in the source", "description": "MRTinfinity in male CD-1(ICR) mouse at 10 mg/kg, po measured after 1440 mins by LC-MS/MS analysis"}, "[28]": {"conditions": "mouse, in vivo, iv, 1 mg/kg, 24 h"}, "[29]": {"experiment": "Inhibition of immunosuppressive activity in PGE2-induced human T cells assessed as increase in IFNgamma production preincubated with PGE2 for 15 mins followed by compound administration for 60 mins and measured after 48 hrs of anti-human CD28 antibody by ELISA", "conditions": "T-cell"}, "in vivo [30]": {"experiment": "in vivo", "conditions": "male, CD-1(ICR), mouse, iv, 1 mg/kg", "remark": "listed apart in the source", "description": "Volume of distribution at steady state in male CD-1(ICR) mouse at 1 mg/kg, iv measured after 1440 mins by LC-MS/MS analysis"}, "[31]": {"experiment": "Protein binding in CD-1 mouse plasma assessed as unbound fraction at 5 uM incubated for 5 hrs by equilibrium dialysis based LC-MS analysis"}, "in vivo [32]": {"experiment": "in vivo", "conditions": "male, CD-1(ICR), mouse, po, 10 mg/kg", "remark": "listed apart in the source", "description": "AUClast in male CD-1(ICR) mouse at 10 mg/kg, po measured after 1440 mins by LC-MS/MS analysis"}, "4T1": {"system": "4T1", "experiment": "Antitumor activity against mouse 4T1 cells implanted in female BALB/C mouse model assessed as tumor growth inhibition at 30 mg/kg, po relative to control", "conditions": "4T1, po, read-out: TGI"}, "in vivo [33]": {"experiment": "in vivo", "conditions": "male, CD-1(ICR), mouse, iv, 1 mg/kg", "remark": "listed apart in the source", "description": "Half-life in male CD-1(ICR) mouse at 1 mg/kg, iv measured after 1440 mins by LC-MS/MS analysis"}, "in vitro [34]": {"experiment": "in vitro", "conditions": "rhesus monkey, hepatocytes"}, "in vitro [35]": {"experiment": "in vitro", "conditions": "mouse, hepatocytes"}, "in vivo [36]": {"experiment": "in vivo", "conditions": "male, CD-1(ICR), mouse, po, 10 mg/kg", "remark": "listed apart in the source", "description": "Half-life in male CD-1(ICR) mouse at 10 mg/kg, po measured after 1440 mins by LC-MS/MS analysis"}, "in vivo [37]": {"experiment": "in vivo", "conditions": "male, CD-1(ICR), mouse, po, 10 mg/kg", "remark": "listed apart in the source", "description": "AUCinfinity in male CD-1(ICR) mouse at 10 mg/kg, po measured after 1440 mins by LC-MS/MS analysis"}, "[38]": {"experiment": "Inhibition of immunosuppressive activity in PGE2-induced human T cells assessed as increase in cell proliferation preincubated with PGE2 for 15 mins followed by compound administration for 60 mins and measured after 72 hrs of anti-human CD28 antibody by flow cytometric analysis"}, "in vivo [39]": {"experiment": "in vivo", "conditions": "male, CD-1(ICR), mouse, iv, 1 mg/kg", "remark": "listed apart in the source", "description": "Apparent volume of distribution in male CD-1(ICR) mouse at 1 mg/kg, iv measured after 1440 mins by LC-MS/MS analysis"}, "[40]": {"experiment": "Toxicity in female BALB/C mouse model implanted with mouse CT26 cells assessed as effect on body weight at 30 mg/kg, po administered via gavage once daily and measured after 14 days", "conditions": "in vivo, 336 h"}, "CT26 [41]": {"system": "CT26", "experiment": "Antitumor activity against mouse CT26 cells implanted in female BALB/C mouse model assessed as tumor growth inhibition at 30 mg/kg, po administered via gavage once daily and measured after 14 days relative to control", "conditions": "336 h, read-out: TGI"}}, "data": [{"smiles": "CCN(Cc1cc2c(C(F)(F)F)cn(-c3cccc([C@]4(c5nncn5C)C[C@@H](OC)C4)c3)c(=O)c2[nH]1)CC(C)C", "values": [{"measurement": "Ki", "setting": "[1]", "value": 3.88, "unit": "nM"}]}, {"smiles": "C[C@H]1CCCN(Cc2cc3c(C(F)(F)F)cn(-c4cccc([C@]5(c6nncn6C)C[C@@H](C)C5)c4)c(=O)c3[nH]2)C1", "values": [{"measurement": "CLint scaled at 2 h, 2 µM", "setting": "in vitro [2]", "value": 39.4, "unit": "mL/min/kg"}, {"measurement": "fraction unbound at 5 h, 5 µM", "setting": "[3]", "value": 0.0379}, {"measurement": "Tmax at 24 h", "setting": "in vivo [4]", "value": 21.6, "unit": "min"}, {"measurement": "fraction unbound at 5 h, 5 µM", "setting": "[5]", "value": 0.0394}, {"measurement": "Activity", "setting": "[6]", "value": "Toxic"}, {"measurement": "clearance at 24 h", "setting": "in vivo [7]", "value": 57.8, "unit": "mL/min/kg"}, {"measurement": "bioavailability at 24 h", "setting": "in vivo [8]", "value": 27.2, "unit": "%"}, {"measurement": "%AUCextra", "setting": "[9]", "value": 0.94, "unit": "%"}, {"measurement": "fraction unbound at 5 h, 5 µM", "setting": "[10]", "value": 0.0217}, {"measurement": "fraction unbound at 5 h, 5 µM", "setting": "[11]", "value": 0.0419}, {"measurement": "EC50", "setting": "[12]", "value": 65.7, "unit": "nM"}, {"measurement": "half-life at 2 h, 2 µM", "setting": "in vitro [13]", "value": 40.7, "unit": "min"}, {"measurement": "half-life at 2 h, 2 µM", "setting": "in vitro [14]", "value": 81.8, "unit": "min"}, {"measurement": "fraction unbound at 5 h, 5 µM", "setting": "[15]", "value": 0.0179}, {"measurement": "fraction unbound at 5 h, 5 µM", "setting": "[16]", "value": 0.0419}, {"measurement": "inhibition in vivo at 10 mg/kg", "setting": "CT26 [17]", "value": 12.5, "unit": "%"}, {"measurement": "AUC(0-inf) at 24 h", "setting": "in vivo [18]", "value": 292, "unit": "ng·h/mL"}, {"measurement": "fraction unbound at 5 h, 5 µM", "setting": "[19]", "value": 0.0379}, {"measurement": "half-life at 2 h, 2 µM", "setting": "in vitro [20]", "value": 24.1, "unit": "min"}, {"measurement": "fraction unbound at 5 h, 5 µM", "setting": "[21]", "value": 0.0394}, {"measurement": "C0 at 24 h", "setting": "in vivo [22]", "value": 406, "unit": "ng/mL"}, {"measurement": "AUC(0-t) at 24 h", "setting": "in vivo [23]", "value": 289, "unit": "ng·h/mL"}, {"measurement": "MRT inf at 24 h", "setting": "in vivo [24]", "value": 60.6, "unit": "min"}, {"measurement": "fraction unbound at 5 h, 5 µM", "setting": "[25]", "value": 0.0179}, {"measurement": "Cmax at 24 h", "setting": "in vivo [26]", "value": 480, "unit": "ng/mL"}, {"measurement": "MRT inf at 24 h", "setting": "in vivo [27]", "value": 89.4, "unit": "min"}, {"measurement": "%AUCextra", "setting": "[28]", "value": 1.2, "unit": "%"}, {"measurement": "EC50", "setting": "[29]", "value": 170, "unit": "nM"}, {"measurement": "Vd at 24 h", "setting": "in vivo [30]", "value": 2.91, "unit": "L/kg"}, {"measurement": "fraction unbound at 5 h, 5 µM", "setting": "[31]", "value": 0.0217}, {"measurement": "AUC(0-t) at 24 h", "setting": "in vivo [32]", "value": 789, "unit": "ng·h/mL"}, {"measurement": "inhibition in vivo at 30 mg/kg", "setting": "4T1", "value": 31.3, "unit": "%"}, {"measurement": "half-life at 24 h", "setting": "in vivo [33]", "value": 55.7, "unit": "min"}, {"measurement": "half-life at 2 h, 2 µM", "setting": "in vitro [34]", "value": 12.2, "unit": "min"}, {"measurement": "half-life at 2 h, 2 µM", "setting": "in vitro [35]", "value": 14.3, "unit": "min"}, {"measurement": "half-life at 24 h", "setting": "in vivo [36]", "value": 69, "unit": "min"}, {"measurement": "AUC(0-inf) at 24 h", "setting": "in vivo [37]", "value": 796, "unit": "ng·h/mL"}, {"measurement": "EC50", "setting": "[38]", "value": 1.4, "unit": "nM"}, {"measurement": "Vd at 24 h", "setting": "in vivo [39]", "value": 4.66, "unit": "L/kg"}, {"measurement": "Activity", "setting": "[40]", "value": "Non-toxic"}, {"measurement": "inhibition in vivo at 30 mg/kg", "setting": "CT26 [41]", "value": 56.1, "unit": "%"}]}]}
